Experimental findings from ChEMBL document CHEMBL1201862, “PubChem BioAssay data set” (2004) are described below.

Test systems include 786-0; A498; ACHN; CAKI-1; HCT-15; HL-60; K562; KM12; LOX IMVI; M14; MDA-MB-435; MOLT-4; Malme-3M; NCI-H226; NCI-H460; OVCAR-3; OVCAR-4; PC-3; RPMI-8226; SK-MEL-2.
Common to all, as to test: NCI tumour cell line growth inhibition, 48 h

SMILES strings stand for the structures.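 Five compound concentrations were applied to cells in 96-well plates for 48 hours; endpoints were derived by simple linear interpolation of the resulting dose-response curve. GI50 is the concentration that inhibits growth by half.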 Calls of active or inactive are those of the source. No stated cut-off is given here; in the data, active = GI50 up to about 1.1 µM and inactive = higher.

On to `CCCCCCCCCCCC1NC(N)=NC(CCCO)=C1C(=O)OC` (stereo not given), for which the GI50 was 1.83 µM (inactive) with 786-0; 14.6 µM (inactive) with A498; 4.22 µM (inactive) in the test on ACHN; 7.06 µM (inactive) with CAKI-1; 8.22 µM with HCT-15; 1.42 µM (inactive) with HL-60. The GI50 in the test on K562 is 1.71 µM (inactive); in the test with KM12, 1.61 µM (inactive); with LOX IMVI, 1.66 µM (inactive); in the test on M14, 1.93 µM (inactive); in the test with MDA-MB-435, 1.88 µM (inactive); with MOLT-4, 1.86 µM (inactive). Besides, the GI50 with Malme-3M is 5.12 µM (inactive); in the test with NCI-H226 it was 6.3 µM (inactive); in the test on NCI-H460, 1.94 µM (inactive); in the test on OVCAR-3, 2.37 µM (inactive); in the test with OVCAR-4, 2.97 µM (inactive); in the test on PC-3, 1.1 µM (active). Besides, the GI50 in the test on RPMI-8226 was 2.32 µM (inactive); with SK-MEL-2 it was 1.63 µM (inactive).

For the molecule `CC(C)OC(=O)Nc1c([N+](=O)[O-])cc(C(F)(F)F)cc1[N+](=O)[O-]`, the GI50 in the test with 786-0 is 15.9 µM (inactive); in the test on A498, > 100 µM (inactive); in the test on ACHN it was > 100 µM (inactive); in the test on CAKI-1, > 100 µM (inactive); in the test on HCT-15, over 100 µM; with HL-60, > 100 µM (inactive). For the same molecule, the GI50 in the test on K562 was > 46.5 µM (inactive); in the test on KM12 it was > 100 µM (inactive); in the test on LOX IMVI, > 100 µM (inactive); with M14, > 100 µM (inactive); in the test with MDA-MB-435 it was > 100 µM (inactive); in the test with MOLT-4, > 46.5 µM (inactive). Further, the GI50 is > 100 µM (inactive) in the test with Malme-3M; > 89.1 µM (inactive) in the test with NCI-H226; > 100 µM (inactive) in the test with NCI-H460; > 100 µM (inactive) in the test on OVCAR-3; > 100 µM (inactive) in the test on OVCAR-4; > 100 µM (inactive) with PC-3. The GI50 with RPMI-8226 is > 100 µM (inactive); with SK-MEL-2, > 73.1 µM (inactive).

In the case of `Cc1cc2c(cc1C)N1C(Cl)=C3CCCCC3=C(C#N)C1N2` (stereo not given), the GI50 in the test with 786-0 was 1.92 µM (inactive); in the test on A498, 19.1 µM (inactive); in the test on ACHN, 3.16 µM (inactive); in the test with CAKI-1, 5.04 µM (inactive); in the test with HCT-15, 2.61 µM; in the test with HL-60, 3.05 µM (inactive). The GI50 was 3.6 µM (inactive) in the test with K562; 9.02 µM (inactive) in the test on KM12; 2.19 µM (inactive) with LOX IMVI; 7.38 µM (inactive) with M14; 6.03 µM (inactive) in the test on MDA-MB-435; 3.48 µM (inactive) in the test on MOLT-4. The GI50 with Malme-3M is 16.8 µM (inactive); in the test on NCI-H226, 13.5 µM (inactive); in the test on NCI-H460 it was 18 µM (inactive); in the test on OVCAR-3 it was 16.7 µM (inactive); with OVCAR-4 it was 12.3 µM (inactive); with PC-3 it was 13.6 µM (inactive). The GI50 was 5.25 µM (inactive) in the test on RPMI-8226 and 14.6 µM (inactive) with SK-MEL-2.

In the case of `CC(=O)c1cccn1/C=C(\OC(=O)OC(C)(C)C)c1ccc[nH]1`, the GI50 is > 100 µM (inactive) in the test with 786-0; 34.8 µM (inactive) in the test on A498; > 100 µM (inactive) in the test on ACHN; 22 µM (inactive) with CAKI-1; 55.5 µM in the test with HCT-15; 31 µM (inactive) in the test on HL-60. The GI50 was 59.6 µM (inactive) in the test with K562; 46.3 µM (inactive) with KM12; 62.4 µM (inactive) in the test with LOX IMVI; 76.4 µM (inactive) in the test with M14; > 100 µM (inactive) in the test on MDA-MB-435; 48.2 µM (inactive) in the test on MOLT-4. The GI50 with Malme-3M is > 100 µM (inactive); with NCI-H226, 33.2 µM (inactive); in the test on NCI-H460 it was > 100 µM (inactive); in the test on OVCAR-3 it was 46.6 µM (inactive); in the test on OVCAR-4, 42 µM (inactive); in the test on PC-3, 49.1 µM (inactive). The GI50 was 59 µM (inactive) with RPMI-8226 and > 100 µM (inactive) in the test with SK-MEL-2.

As for `N#Cc1c(N)nc(SCc2ccccc2)c(C#N)c1-c1ccc(O)cc1`, the GI50 in the test on 786-0 was 14 µM (inactive); in the test on A498 it was 13.1 µM (inactive); with ACHN, 13.2 µM (inactive); in the test with CAKI-1, 13.5 µM (inactive); with HCT-15, 11.2 µM; in the test on HL-60 it was 11.3 µM (inactive). Also, the GI50 with K562 is 11 µM (inactive); with KM12 it was 11 µM (inactive); in the test with LOX IMVI, 16.6 µM (inactive); with M14, 14.2 µM (inactive); with MDA-MB-435, 11.6 µM (inactive); in the test on MOLT-4, 5.53 µM (inactive). In addition, the GI50 in the test with Malme-3M was 15.3 µM (inactive); with NCI-H226, 22.4 µM (inactive); in the test on NCI-H460, 25.8 µM (inactive); in the test with OVCAR-3, 14.6 µM (inactive); in the test on OVCAR-4 it was 10.3 µM (inactive); in the test with PC-3, 15.5 µM (inactive). Besides, the GI50 in the test on RPMI-8226 is 5.24 µM (inactive); in the test with SK-MEL-2 it was 15.2 µM (inactive).

`C=CC(C)(C)N[C@@H](C(=O)N1CCC[C@H]1c1nc(-c2nc(C(=O)OCC=C(C)C)c(C)o2)c(C)o1)C(C)C`: the GI50 with 786-0 was 19.5 µM (inactive); with A498, 19.7 µM (inactive); in the test with ACHN, 29.4 µM (inactive); in the test on CAKI-1, 35.5 µM (inactive); in the test with HCT-15, 22 µM; with HL-60, 20.6 µM (inactive). For the same molecule, the GI50 in the test on K562 was 36.5 µM (inactive); with KM12, 23 µM (inactive); with LOX IMVI, 30.6 µM (inactive); with M14 it was 29 µM (inactive); in the test with MDA-MB-435, 18.5 µM (inactive); in the test with MOLT-4, 15.2 µM (inactive). Also, the GI50 with Malme-3M was 18.6 µM (inactive); with NCI-H226, 17 µM (inactive); in the test with NCI-H460 it was 24 µM (inactive); with OVCAR-3 it was 23.1 µM (inactive); in the test with OVCAR-4 it was 22.8 µM (inactive); with PC-3, 25.5 µM (inactive). Besides, the GI50 in the test on RPMI-8226 is 18.7 µM (inactive); in the test on SK-MEL-2, 34 µM (inactive).

For the molecule `CCOC(=O)c1[nH]cc(C)c1-c1c[nH]c2ccccc12`, the GI50 in the test on 786-0 is 34.9 µM (inactive); with A498, 59.6 µM (inactive); in the test with ACHN, 23 µM (inactive); in the test with CAKI-1 it was 37.1 µM (inactive); with HCT-15 it was 8.81 µM; in the test on HL-60 it was 6.44 µM (inactive). For the same molecule, the GI50 with K562 was 6.04 µM (inactive); in the test with KM12 it was 42.6 µM (inactive); in the test with LOX IMVI it was 18 µM (inactive); in the test on M14 it was 24.9 µM (inactive); with MDA-MB-435, 26 µM (inactive); with MOLT-4 it was 4.11 µM (inactive). In addition, the GI50 is 42.7 µM (inactive) in the test with Malme-3M; 19.9 µM (inactive) in the test on NCI-H226; 12.1 µM (inactive) with NCI-H460; 26.7 µM (inactive) in the test with OVCAR-3; 41.5 µM (inactive) in the test on OVCAR-4; 14 µM (inactive) with PC-3. For the same molecule, the GI50 is 7.35 µM (inactive) in the test on RPMI-8226 and 29.4 µM (inactive) with SK-MEL-2.

Consider `CC(C)C1OC(=O)/C=C/C=C/C=C/C=C/C=C/CC(O)CC(O)CC(O)CC(O)CC(O)CC(O)CC(O)CC(O)/C=C/C1C` (stereo not given), for which the GI50 is > 100 µM (inactive) in the test on 786-0; > 100 µM (inactive) in the test on A498; > 100 µM (inactive) in the test with ACHN; > 100 µM (inactive) in the test on CAKI-1; over 100 µM in the test with HCT-15; > 100 µM (inactive) in the test with HL-60. Besides, the GI50 in the test with K562, in the test on KM12, in the test on LOX IMVI, in the test on M14, with MDA-MB-435 and in the test with MOLT-4 was > 100 µM (inactive) each time. For the same molecule, the GI50 in the test with Malme-3M, with NCI-H226, in the test on NCI-H460, in the test with OVCAR-3, in the test with OVCAR-4 and in the test on PC-3 was > 100 µM (inactive) throughout. Further, the GI50 with RPMI-8226 and in the test on SK-MEL-2 was > 100 µM (inactive) in each case.

Consider `O=S(=O)(O)c1ccc2c(/N=N/c3ccc(S(=O)(=O)O)c4ccccc34)c(O)c(S(=O)(=O)O)cc2c1`, for which the GI50 in the test on 786-0 is > 100 µM (inactive); in the test on A498 it was > 100 µM (inactive); in the test on ACHN it was > 100 µM (inactive); with CAKI-1, > 100 µM (inactive); with HCT-15 it was over 100 µM; in the test with HL-60 it was > 100 µM (inactive). The GI50 in the test on K562, in the test on KM12, with LOX IMVI, in the test on M14, in the test on MDA-MB-435 and in the test with MOLT-4 was > 100 µM (inactive) each time. Further, the GI50 in the test on Malme-3M, in the test on NCI-H226, with NCI-H460, in the test with OVCAR-3, in the test on OVCAR-4 and in the test with PC-3 was > 100 µM (inactive) throughout. The GI50 in the test on RPMI-8226 and in the test with SK-MEL-2 was > 100 µM (inactive) throughout.

Take `CC(=O)OC(C)c1cc2c(s1)C(=O)c1scc(C(C)OC(C)=O)c1C2=O` (stereo not given): the GI50 with 786-0 is 0.244 µM (active); in the test with A498, 0.619 µM (active); in the test on ACHN, 0.238 µM (active); in the test with CAKI-1, 1.56 µM (inactive); in the test on HCT-15, 0.195 µM; with HL-60 it was 0.646 µM (active). For the same molecule, the GI50 in the test with K562 was 0.355 µM (active); with KM12 it was 0.195 µM (active); in the test with LOX IMVI it was 0.118 µM (active); with M14, 0.117 µM (active); with MDA-MB-435, 0.0292 µM (active); in the test with MOLT-4 it was 0.324 µM (active). Further, the GI50 in the test with Malme-3M is 0.139 µM (active); with NCI-H226, 2.24 µM (inactive); in the test with NCI-H460, 0.167 µM (active); in the test on OVCAR-3, 0.307 µM (active); with OVCAR-4, 0.298 µM (active); in the test with PC-3, 0.292 µM (active). Besides, the GI50 in the test with RPMI-8226 is 0.223 µM (active); in the test on SK-MEL-2, 0.227 µM (active).
